Laboratory results: ChEMBL document CHEMBL5728262, “Oxadiazolones as transient receptor potential channel inhibitors” (2021)

Target: Transient receptor potential cation channel subfamily A member 1 (Homo sapiens, UniProt O75762)
Assay: FLIPR Assay: The IC50 (effective concentration) of compounds on the human and rat TRPA1 channels were determined using a FLIPR Tetra instrument. CHO cells expressing TRPA1 were plated into 384-well plates, incubated overnight at 37° C., and loaded with BD calcium indicator dye for 1 hr at 37° C. followed by 15 minutes at room temperature. The assay buffer was Hank's Balanced Salt Solution (HBSS) containing 20 mM HEPES (pH readjusted to 7.4) along with 0.02% BSA.Following dye load and plate cool down, compounds were added to the cells using FLIPR Tetra. Plates were then incubated with compounds for 20 minutes at room temperature prior to adding agonist. […] Fixing the Hill coefficient will generally reduce variability of the IC50 determination. The IC50 results were individually examined to make sure the MIN and MAX points were set correctly prior to validation of the results.

Chain of Transient receptor potential cation channel subfamily A member 1 (O75762 whole entry): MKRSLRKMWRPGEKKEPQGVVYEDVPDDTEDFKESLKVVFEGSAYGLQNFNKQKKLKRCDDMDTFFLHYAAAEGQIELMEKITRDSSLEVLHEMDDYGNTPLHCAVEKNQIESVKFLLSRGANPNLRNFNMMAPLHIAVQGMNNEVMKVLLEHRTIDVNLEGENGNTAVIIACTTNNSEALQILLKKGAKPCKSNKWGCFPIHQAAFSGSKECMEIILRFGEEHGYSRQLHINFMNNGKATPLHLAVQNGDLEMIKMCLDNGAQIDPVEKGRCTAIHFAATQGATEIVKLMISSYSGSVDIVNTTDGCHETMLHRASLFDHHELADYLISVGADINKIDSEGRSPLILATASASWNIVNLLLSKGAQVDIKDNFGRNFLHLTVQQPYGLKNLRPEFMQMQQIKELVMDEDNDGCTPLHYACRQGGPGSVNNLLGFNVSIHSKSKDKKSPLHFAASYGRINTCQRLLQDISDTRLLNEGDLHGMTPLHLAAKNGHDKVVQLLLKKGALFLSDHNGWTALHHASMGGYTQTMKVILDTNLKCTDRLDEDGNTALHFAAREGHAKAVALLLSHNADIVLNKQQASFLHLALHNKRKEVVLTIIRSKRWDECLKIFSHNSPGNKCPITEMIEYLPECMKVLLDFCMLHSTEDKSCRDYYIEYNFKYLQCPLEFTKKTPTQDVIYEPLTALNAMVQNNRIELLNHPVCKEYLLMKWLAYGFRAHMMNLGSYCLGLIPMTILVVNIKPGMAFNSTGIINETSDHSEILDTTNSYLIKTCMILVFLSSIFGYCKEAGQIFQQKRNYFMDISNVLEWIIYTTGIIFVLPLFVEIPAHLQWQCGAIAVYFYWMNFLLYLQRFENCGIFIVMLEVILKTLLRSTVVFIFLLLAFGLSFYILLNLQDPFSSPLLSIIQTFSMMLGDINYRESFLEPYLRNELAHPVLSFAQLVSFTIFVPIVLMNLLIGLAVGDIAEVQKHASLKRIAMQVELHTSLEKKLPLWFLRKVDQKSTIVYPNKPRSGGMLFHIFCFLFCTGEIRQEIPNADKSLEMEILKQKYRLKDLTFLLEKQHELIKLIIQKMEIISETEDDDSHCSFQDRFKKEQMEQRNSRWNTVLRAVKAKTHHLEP

With Cn1nc(C#N)c2ncn(Cc3nn(CCc4ccc(Cl)cc4)c(=O)o3)c(=O)c21 the IC50 was 100 nM.
